Source: ChEMBL document CHEMBL3885861, “Open TG-GATES”

Species: Rattus norvegicus
Test: Open TG-GATES - Regimen: Single
Assay type: toxicity, organism-based, Sprague-Dawley
Parameters: regimen Single, gender Male, age 6 weeks
Conditions: in vivo, po, 0 mg/kg, route gavage, dose level Control; for APTT / Bas / Eos / Fbg / Hb / Ht / Lym / MCH / MCHC / MCV / Mono / Neu / PT / Plat / RBC / Ret: tissue Blood; for KIDNEY_L / KIDNEY_R / KIDNEY_TOTAL: tissue Kidney; for LIVER: tissue Liver; for ALP / ALT / AST / BUN / CRE / Ca / Cl / DBIL / GLC / IP / K / LDH / Na / PL / RALB / TBIL / TC / TG / TP / gamma-GTP: tissue Plasma

## COc1ccc2[nH]c([S+]([O-])Cc3ncc(C)c(OC)c3C)nc2c1 (stereo not drawn) [OMEPRAZOLE]
3 h
  TERMINAL_BW: 218.5 g
  APTT: 20.5 s
  Bas: 0%
  Eos: 1%
  Fbg: 206.4 mg/dL
  Hb: 13 g/dL
  Ht: 38.5%
  Lym: 77.8%
  MCH: 21.4 pg
  MCHC: 33.9%
  MCV: 63.1 fL
  Mono: 2.4%
  Neu: 18.6%
  PT: 12.5 s
  Plat: 122.7 x10_4/uL
  RBC: 610.2 x10_4/ul
  Ret: 7.2%
  KIDNEY_L: 0.9 g
  KIDNEY_R: 0.9 g
  KIDNEY_TOTAL: 1.9 g
  LIVER: 9.9 g
  ALP: 855.8 IU/L
  ALT: 33.2 IU/L
  AST: 68.4 IU/L
  BUN: 12.6 mg/dL
  CRE: 0.4 mg/dL
  Ca: 10.8 mg/dL
  Cl: 100.6 meq/L
  DBIL: 0.064 mg/dL
  GLC: 191.8 mg/dL
  IP: 8.3 mg/dL
  K: 3.8 meq/L
  LDH: 171.2 IU/L
  Na: 140.4 meq/L
  PL: 130.8 mg/dL
  RALB: 3.1 g/dL
  TBIL: 0.1 mg/dL
  TC: 69.4 mg/dL
  TG: 59.4 mg/dL
  TP: 5.3 g/dL
  gamma-GTP: 1 IU/L
6 h
  TERMINAL_BW: 218.1 g
  APTT: 19.3 s
  Bas: 0%
  Eos: 0.8%
  Fbg: 220.4 mg/dL
  Hb: 13.6 g/dL
  Ht: 39.7%
  Lym: 72.4%
  MCH: 21.4 pg
  MCHC: 34.1%
  MCV: 62.7 fL
  Mono: 3.8%
  Neu: 22.2%
  PT: 12.6 s
  Plat: 123.4 x10_4/uL
  RBC: 634.2 x10_4/ul
  Ret: 7.1%
  KIDNEY_L: 1 g
  KIDNEY_R: 1 g
  KIDNEY_TOTAL: 1.9 g
  LIVER: 9.9 g
  ALP: 923.8 IU/L
  ALT: 32.6 IU/L
  AST: 66 IU/L
  BUN: 11 mg/dL
  CRE: 0.3 mg/dL
  Ca: 10.7 mg/dL
  Cl: 100.8 meq/L
  DBIL: 0.07 mg/dL
  GLC: 201 mg/dL
  IP: 8.8 mg/dL
  K: 3.8 meq/L
  LDH: 181.6 IU/L
  Na: 140 meq/L
  PL: 141.4 mg/dL
  RALB: 3.3 g/dL
  TBIL: 0.1 mg/dL
  TC: 73.4 mg/dL
  TG: 81.2 mg/dL
  TP: 5.4 g/dL
  gamma-GTP: 1.8 IU/L
9 h
  TERMINAL_BW: 218.2 g
  APTT: 20.9 s
  Bas: 0%
  Eos: 1%
  Fbg: 212.8 mg/dL
  Hb: 13.3 g/dL
  Ht: 38.6%
  Lym: 78%
  MCH: 21.5 pg
  MCHC: 34.3%
  MCV: 62.6 fL
  Mono: 3%
  Neu: 17.4%
  PT: 13.1 s
  Plat: 119.3 x10_4/uL
  RBC: 615.6 x10_4/ul
  Ret: 7.4%
  KIDNEY_L: 0.9 g
  KIDNEY_R: 1 g
  KIDNEY_TOTAL: 1.9 g
  LIVER: 9.1 g
  ALP: 764.2 IU/L
  ALT: 28 IU/L
  AST: 59.2 IU/L
  BUN: 11.4 mg/dL
  CRE: 0.3 mg/dL
  Ca: 10.7 mg/dL
  Cl: 101 meq/L
  DBIL: 0.06 mg/dL
  GLC: 188.4 mg/dL
  IP: 9.4 mg/dL
  K: 3.9 meq/L
  LDH: 175.4 IU/L
  Na: 140.4 meq/L
  PL: 122.2 mg/dL
  RALB: 3.3 g/dL
  TBIL: 0.1 mg/dL
  TC: 66.4 mg/dL
  TG: 54.6 mg/dL
  TP: 5.5 g/dL
  gamma-GTP: 1.4 IU/L
24 h
  TERMINAL_BW: 234.9 g
  APTT: 20.7 s
  Bas: 0%
  Eos: 1%
  Fbg: 229.6 mg/dL
  Hb: 13.2 g/dL
  Ht: 38.7%
  Lym: 78.6%
  MCH: 21.7 pg
  MCHC: 34.1%
  MCV: 63.6 fL
  Mono: 2.6%
  Neu: 17.2%
  PT: 12.1 s
  Plat: 118.9 x10_4/uL
  RBC: 608 x10_4/ul
  Ret: 6.6%
  KIDNEY_L: 1 g
  KIDNEY_R: 1 g
  KIDNEY_TOTAL: 2 g
  LIVER: 11.8 g
  ALP: 979.4 IU/L
  ALT: 35.4 IU/L
  AST: 62.2 IU/L
  BUN: 17.4 mg/dL
  CRE: 0.4 mg/dL
  Ca: 11.1 mg/dL
  Cl: 101.2 meq/L
  DBIL: 0.094 mg/dL
  GLC: 216 mg/dL
  IP: 7.7 mg/dL
  K: 4.2 meq/L
  LDH: 192 IU/L
  Na: 140.6 meq/L
  PL: 151.6 mg/dL
  RALB: 3.4 g/dL
  TBIL: 0.1 mg/dL
  TC: 79.6 mg/dL
  TG: 109 mg/dL
  TP: 5.5 g/dL
